Assay results from article PMC4979471 (Cell Death Discovery, 2015).
Like-named read-outs stand apart in the source and are kept apart here.

Key:
Assay in all cases: Kinase selectivity, P33-radiolabeled assay
Assay type in all cases: biochemical
Conditions in all cases: 10 μM ATP
[1] = target: T1, BRSK1 (Homo sapiens, UniProt Q8TDC3)
T1 construct: purchased Reaction Biology Corp
T1 sequence (Q8TDC3 1-778): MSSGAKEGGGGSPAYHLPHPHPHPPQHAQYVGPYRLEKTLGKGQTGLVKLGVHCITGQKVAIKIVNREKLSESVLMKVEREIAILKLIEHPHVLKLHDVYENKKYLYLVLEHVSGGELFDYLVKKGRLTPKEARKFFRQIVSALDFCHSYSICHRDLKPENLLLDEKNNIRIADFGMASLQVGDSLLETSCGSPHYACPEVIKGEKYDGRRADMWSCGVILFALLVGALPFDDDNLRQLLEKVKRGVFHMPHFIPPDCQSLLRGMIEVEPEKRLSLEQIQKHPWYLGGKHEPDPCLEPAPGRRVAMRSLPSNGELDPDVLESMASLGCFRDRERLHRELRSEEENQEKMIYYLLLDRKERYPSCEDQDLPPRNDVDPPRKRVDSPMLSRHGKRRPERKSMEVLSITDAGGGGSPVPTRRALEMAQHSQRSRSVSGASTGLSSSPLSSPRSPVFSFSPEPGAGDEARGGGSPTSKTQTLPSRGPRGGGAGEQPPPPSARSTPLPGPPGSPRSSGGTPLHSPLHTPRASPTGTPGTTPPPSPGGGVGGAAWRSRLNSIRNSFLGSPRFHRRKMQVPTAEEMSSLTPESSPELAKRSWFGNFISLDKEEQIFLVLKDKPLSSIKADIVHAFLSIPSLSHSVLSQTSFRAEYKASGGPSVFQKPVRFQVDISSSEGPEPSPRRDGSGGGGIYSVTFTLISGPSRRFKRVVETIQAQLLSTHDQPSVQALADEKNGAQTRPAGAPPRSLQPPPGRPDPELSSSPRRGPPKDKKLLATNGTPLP
Procedure, shortened: (§1)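 ATP at 10 μM; test article at 10 μM, single point, two replicates. Output is activity as % of DMSO.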

[2] = target: T2, CK1g3 (Homo sapiens, UniProt Q9Y6M4)
T2 construct: purchased Reaction Biology Corp
T2 sequence (Q9Y6M4 whole entry): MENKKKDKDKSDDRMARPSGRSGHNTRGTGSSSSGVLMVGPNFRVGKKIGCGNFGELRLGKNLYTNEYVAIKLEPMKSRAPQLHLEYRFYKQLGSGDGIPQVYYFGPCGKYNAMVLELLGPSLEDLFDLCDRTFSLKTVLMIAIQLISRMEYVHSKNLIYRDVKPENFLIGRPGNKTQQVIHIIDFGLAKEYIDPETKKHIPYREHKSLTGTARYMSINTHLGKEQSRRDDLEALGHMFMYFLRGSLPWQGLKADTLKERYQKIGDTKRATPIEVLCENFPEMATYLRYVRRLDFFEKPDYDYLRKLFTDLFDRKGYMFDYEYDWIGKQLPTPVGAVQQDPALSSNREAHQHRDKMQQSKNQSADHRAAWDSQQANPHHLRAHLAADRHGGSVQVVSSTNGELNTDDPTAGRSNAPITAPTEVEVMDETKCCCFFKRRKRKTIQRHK
Procedure, shortened: as §1

[3] = target: T3, VRK2 (Homo sapiens, UniProt Q86Y07)
T3 construct: purchased Reaction Biology Corp
T3 sequence (Q86Y07 whole entry): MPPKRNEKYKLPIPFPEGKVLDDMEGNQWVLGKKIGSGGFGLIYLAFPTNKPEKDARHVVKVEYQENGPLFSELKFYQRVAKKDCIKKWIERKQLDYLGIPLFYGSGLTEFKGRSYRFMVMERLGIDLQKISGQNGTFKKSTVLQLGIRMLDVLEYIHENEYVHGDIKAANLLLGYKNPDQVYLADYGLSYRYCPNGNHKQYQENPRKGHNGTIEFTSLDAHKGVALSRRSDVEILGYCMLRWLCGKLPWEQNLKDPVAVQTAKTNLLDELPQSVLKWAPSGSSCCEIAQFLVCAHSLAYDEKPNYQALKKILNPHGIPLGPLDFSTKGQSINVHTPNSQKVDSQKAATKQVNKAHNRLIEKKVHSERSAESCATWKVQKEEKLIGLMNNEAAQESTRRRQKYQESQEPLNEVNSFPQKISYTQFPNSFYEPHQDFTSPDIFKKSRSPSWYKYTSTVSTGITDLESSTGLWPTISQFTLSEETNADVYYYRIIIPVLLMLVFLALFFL
Procedure, shortened: as §1

[4] = target: T4, PKCb1 (Homo sapiens, UniProt P05771)
T4 construct: purchased Reaction Biology Corp
T4 sequence (P05771 whole entry): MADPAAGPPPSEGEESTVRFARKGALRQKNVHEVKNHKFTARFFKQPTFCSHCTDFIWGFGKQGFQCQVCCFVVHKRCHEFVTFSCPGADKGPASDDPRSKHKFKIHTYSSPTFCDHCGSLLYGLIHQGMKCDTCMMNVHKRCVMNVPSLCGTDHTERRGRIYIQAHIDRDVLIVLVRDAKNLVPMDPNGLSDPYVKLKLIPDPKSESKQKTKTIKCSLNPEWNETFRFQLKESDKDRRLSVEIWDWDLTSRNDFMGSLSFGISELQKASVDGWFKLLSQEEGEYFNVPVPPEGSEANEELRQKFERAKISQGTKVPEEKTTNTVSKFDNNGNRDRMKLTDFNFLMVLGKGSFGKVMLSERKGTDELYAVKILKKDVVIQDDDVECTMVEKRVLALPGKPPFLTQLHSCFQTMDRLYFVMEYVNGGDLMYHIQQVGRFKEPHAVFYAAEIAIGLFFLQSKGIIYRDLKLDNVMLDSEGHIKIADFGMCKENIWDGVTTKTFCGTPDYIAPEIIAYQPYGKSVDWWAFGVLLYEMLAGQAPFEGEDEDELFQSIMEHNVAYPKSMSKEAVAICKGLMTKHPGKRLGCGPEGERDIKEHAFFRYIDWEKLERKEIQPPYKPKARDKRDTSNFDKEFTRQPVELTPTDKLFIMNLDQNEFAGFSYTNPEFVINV
Procedure, shortened: as §1

[5] = target: T5, PIM2 (Homo sapiens, UniProt Q9P1W9)
T5 construct: purchased Reaction Biology Corp
T5 sequence (Q9P1W9 whole entry): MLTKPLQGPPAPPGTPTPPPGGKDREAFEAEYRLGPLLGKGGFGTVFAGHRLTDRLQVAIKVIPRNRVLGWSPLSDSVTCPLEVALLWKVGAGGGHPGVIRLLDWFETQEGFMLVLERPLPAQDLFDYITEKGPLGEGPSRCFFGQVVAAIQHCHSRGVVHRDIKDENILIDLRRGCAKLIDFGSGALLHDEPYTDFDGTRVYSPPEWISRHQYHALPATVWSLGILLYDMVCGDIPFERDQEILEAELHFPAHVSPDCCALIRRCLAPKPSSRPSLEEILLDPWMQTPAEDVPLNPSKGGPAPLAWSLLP
Procedure, shortened: as §1

[6] = target: T6, PLK1 (Homo sapiens, UniProt P53350)
T6 construct: purchased Reaction Biology Corp
T6 sequence (P53350 whole entry): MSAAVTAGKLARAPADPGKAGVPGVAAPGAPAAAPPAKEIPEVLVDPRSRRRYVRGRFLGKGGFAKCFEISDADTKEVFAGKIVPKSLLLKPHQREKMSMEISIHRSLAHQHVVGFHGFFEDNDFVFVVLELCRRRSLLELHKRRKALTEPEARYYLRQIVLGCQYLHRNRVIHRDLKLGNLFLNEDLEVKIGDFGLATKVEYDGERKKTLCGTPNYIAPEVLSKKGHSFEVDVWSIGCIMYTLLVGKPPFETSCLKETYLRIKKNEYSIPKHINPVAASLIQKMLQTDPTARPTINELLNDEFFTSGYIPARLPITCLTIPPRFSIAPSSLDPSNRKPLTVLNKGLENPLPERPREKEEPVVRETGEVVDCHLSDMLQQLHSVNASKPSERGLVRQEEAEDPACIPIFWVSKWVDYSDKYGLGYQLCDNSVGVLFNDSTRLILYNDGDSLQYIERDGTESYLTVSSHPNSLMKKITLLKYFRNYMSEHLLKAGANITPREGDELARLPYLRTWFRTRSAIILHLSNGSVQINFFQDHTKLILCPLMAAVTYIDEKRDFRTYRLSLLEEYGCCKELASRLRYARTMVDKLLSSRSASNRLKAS
Procedure, shortened: as §1

[7] = target: T7, TNK1 (Homo sapiens, UniProt Q13470)
T7 construct: purchased Reaction Biology Corp
T7 sequence (Q13470 1-666): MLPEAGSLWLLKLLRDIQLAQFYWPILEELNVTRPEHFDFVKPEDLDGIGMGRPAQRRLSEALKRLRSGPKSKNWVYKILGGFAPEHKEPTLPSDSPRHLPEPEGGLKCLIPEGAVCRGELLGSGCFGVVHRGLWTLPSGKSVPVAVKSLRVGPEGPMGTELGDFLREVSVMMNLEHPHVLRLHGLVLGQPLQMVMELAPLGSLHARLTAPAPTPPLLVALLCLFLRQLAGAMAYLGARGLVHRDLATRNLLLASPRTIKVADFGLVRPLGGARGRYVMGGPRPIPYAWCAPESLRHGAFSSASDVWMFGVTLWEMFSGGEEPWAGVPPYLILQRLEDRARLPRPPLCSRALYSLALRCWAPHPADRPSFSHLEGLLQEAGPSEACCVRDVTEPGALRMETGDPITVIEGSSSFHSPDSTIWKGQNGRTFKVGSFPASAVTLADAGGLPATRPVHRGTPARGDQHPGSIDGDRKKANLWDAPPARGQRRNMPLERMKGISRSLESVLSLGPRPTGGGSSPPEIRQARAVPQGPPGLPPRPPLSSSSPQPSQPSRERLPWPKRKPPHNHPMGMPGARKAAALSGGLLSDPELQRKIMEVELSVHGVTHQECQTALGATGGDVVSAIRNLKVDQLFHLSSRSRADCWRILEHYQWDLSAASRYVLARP
Procedure, shortened: as §1

[8] = target: T8, ERK7/MAPK15 (Homo sapiens, UniProt Q8TD08)
T8 construct: purchased Reaction Biology Corp
T8 sequence (Q8TD08 1-544): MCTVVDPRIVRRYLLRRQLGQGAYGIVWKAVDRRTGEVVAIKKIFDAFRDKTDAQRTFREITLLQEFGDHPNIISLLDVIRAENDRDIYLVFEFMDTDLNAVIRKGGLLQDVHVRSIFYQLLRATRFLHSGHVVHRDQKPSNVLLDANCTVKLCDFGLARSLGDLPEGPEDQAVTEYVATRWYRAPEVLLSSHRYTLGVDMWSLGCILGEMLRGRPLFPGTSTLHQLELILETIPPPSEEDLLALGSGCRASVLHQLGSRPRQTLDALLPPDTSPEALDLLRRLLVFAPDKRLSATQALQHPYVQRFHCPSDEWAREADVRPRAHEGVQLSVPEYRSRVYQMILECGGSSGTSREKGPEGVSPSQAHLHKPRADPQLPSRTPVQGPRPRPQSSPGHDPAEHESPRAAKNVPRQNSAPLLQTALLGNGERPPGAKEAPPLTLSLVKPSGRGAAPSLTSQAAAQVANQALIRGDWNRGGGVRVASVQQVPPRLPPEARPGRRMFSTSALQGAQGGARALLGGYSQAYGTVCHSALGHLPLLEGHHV
Procedure, shortened: as §1

[9] = target: T9, MSK1/RPS6KA5 (Homo sapiens, UniProt O75582)
T9 construct: purchased Reaction Biology Corp
T9 sequence (O75582 whole entry): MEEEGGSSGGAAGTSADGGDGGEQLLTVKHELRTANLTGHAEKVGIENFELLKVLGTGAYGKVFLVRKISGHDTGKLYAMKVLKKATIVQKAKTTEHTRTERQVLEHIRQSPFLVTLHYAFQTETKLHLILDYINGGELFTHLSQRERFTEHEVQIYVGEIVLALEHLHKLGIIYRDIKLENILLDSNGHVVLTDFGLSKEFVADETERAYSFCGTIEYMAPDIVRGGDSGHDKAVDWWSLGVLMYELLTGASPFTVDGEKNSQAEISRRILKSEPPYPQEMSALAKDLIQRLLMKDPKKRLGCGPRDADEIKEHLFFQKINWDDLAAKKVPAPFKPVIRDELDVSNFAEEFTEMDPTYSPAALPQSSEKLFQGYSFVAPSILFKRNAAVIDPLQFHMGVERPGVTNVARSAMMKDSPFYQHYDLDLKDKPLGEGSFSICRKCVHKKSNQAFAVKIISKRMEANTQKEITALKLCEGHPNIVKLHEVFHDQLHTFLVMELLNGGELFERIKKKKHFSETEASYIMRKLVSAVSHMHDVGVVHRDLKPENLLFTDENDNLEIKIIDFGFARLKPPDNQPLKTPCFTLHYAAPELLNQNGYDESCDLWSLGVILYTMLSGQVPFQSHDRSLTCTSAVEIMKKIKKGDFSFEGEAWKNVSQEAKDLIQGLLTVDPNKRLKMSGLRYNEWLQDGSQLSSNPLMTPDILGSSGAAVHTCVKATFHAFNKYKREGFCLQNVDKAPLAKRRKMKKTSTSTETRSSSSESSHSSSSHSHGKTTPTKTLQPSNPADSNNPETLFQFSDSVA
Procedure, shortened: as §1

[10] = read-out: % Enzyme Activity (relative to DMSO controls) AVG
[11] = read-out: % Enzyme Activity (relative to DMSO controls) Data 1
[12] = read-out: % Enzyme Activity (relative to DMSO controls) Data 2

SMILES: CC(C)(C)C(=O)N1N=CC[C@H]1c1ccccc1 [GSK′963]
- remaining activity at 10 µM [1, 10]: 95.2%
- remaining activity at 10 µM [1, 11]: 96.9%
- remaining activity at 10 µM [1, 12]: 93.5%
- remaining activity at 10 µM [2, 10]: 98.4%
- remaining activity at 10 µM [2, 11]: 97.8%
- remaining activity at 10 µM [2, 12]: 99%
- remaining activity at 10 µM [3, 10]: 107%
- remaining activity at 10 µM [3, 11]: 107%
- remaining activity at 10 µM [3, 12]: 108%
- remaining activity at 10 µM [4, 10]: 97.8%
- remaining activity at 10 µM [4, 11]: 96.7%
- remaining activity at 10 µM [4, 12]: 98.9%
- remaining activity at 10 µM [5, 10]: 115%
- remaining activity at 10 µM [5, 11]: 112%
- remaining activity at 10 µM [5, 12]: 118%
- remaining activity at 10 µM [6, 10]: 103%
- remaining activity at 10 µM [6, 11]: 105%
- remaining activity at 10 µM [6, 12]: 101%
- remaining activity at 10 µM [7, 10]: 98.8%
- remaining activity at 10 µM [7, 11]: 100%
- remaining activity at 10 µM [7, 12]: 97.2%
- remaining activity at 10 µM [8, 10]: 112%
- remaining activity at 10 µM [8, 11]: 113%
- remaining activity at 10 µM [8, 12]: 111%
- remaining activity at 10 µM [9, 10]: 108%
- remaining activity at 10 µM [9, 11]: 108%
- remaining activity at 10 µM [9, 12]: 108%
